What all share (assay type): cell-based, human
The subject of one assay is c-Rel. Description: ELISA based transcriptional factor-DNA binding activity assay, THP-1 nuclear extracts, c-Rel. The note with it: IFN-γ/LPS, 500 nm, 3 hrs. As for the experimental part:
Nuclear extracts were prepared from IFN-γ-primed THP-1 cells that had been treated with or without SAC and incubated in the presence or absence of 1 μM Compound 1 or 10 mM ASA. Isolation of nuclear extracts was accomplished by first suspending THP-1 cells in 20 volumes of buffer A containing 10 mM KCl, 10 mM HEPES (pH 7.9), 1 mM MgCl2, 1 mM dithiothreitol (DTT), 0.1% Nonidet p40 (NP-40), and 0.5 mM phenylmethylsulfonyl fluoride (PMSF) and then homogenizing and centrifuging at 10,000 rpm at 4° C. for 5 min. Nuclear pellets were then suspended in buffer C containing 400 mM NaCl, 20 mM HEPES pH 7.9), 15 mM MgCl2, 0.2 mM EDTA, 1 mM DTT, 25% glycerol, 1 mM PMSF, and 10 μg of leupeptin, 20 μg of pepstatin, and 10 μg of antipain per ml, incubated for 30 min at 4° C., and centrifuge at 14,000 rpm for […]. The supernatants were dialyzed against buffer D containing 100 mM NaCl, 20 mM HEPES (pH 7.9), 20% glycerol, 1 mM PMSF, and 1 mM DTT.
To understand the action of Compound 2 in NF-κB binding, several NF-κB family members, p50, c-Rel and p65 were investigated using an ELISA based transcriptional factor-DNA binding activity assay system. […]

The subject of another assay is p65. The experiment in a line: Western blot of nuclear p65 in THP-1 cells. An excerpt:
In order to understand this changes, the subcellular localization of NF-κB proteins was investigated using western blot analysis.
Of the transcription factors that have been analyzed, two factors, ICSBP and c-Rel, seem to be affected by Compound 1/Compound 2 treatment. ICSBP binds indirectly to the Ets-2 site. The primary NFκB trans-activator for IL-12 is the c-Rel/p50 heterodimer. Other dimers (p65/p50 and p50/p50) either lack activity or have inhibitory functions. Thus, c-Rel plays a role in IL-12 transcription as a result of both activation through NFκB and its interaction with ICSBP. […] The membranes were blocked with 5% milk in TBST buffer and then incubated with anti-c-Rel, anti-p65, anti-p50, anti-ICSBP or anti-PU-1 antibody (all the antibodies were purchased from Santa Cruz) at a dilution of 1:500 for 1 h at room temperature or overnight at 4° C. The membranes were washed and incubated with Horseradish Peroxidase-conjugated anti-rabbit IgG or anti-mouse IgG (Amersham, England) at a dilution of 1:2000 at room temperature for 1 h.
Compound 2 impairs nuclear translocation of c-Rel and p50. We examined the nuclear translocation kinetics of NF-kB family members in LPS stimulated cells treated with Compound 2. THP1 cells were stimulated with LPS in either the presence or absence of 100 nM Compound 2, and the distribution of the NF-κB Rel family members are determined by immunoblotting nuclear (n.p.) extracts collected at 5 min, 15 min, 30 min, 1 h, 3 h and 6 h post-treatment. In response to LPS stimulation, p50 translocated into the nucleus as early as 5 minutes post-stimulation and accumulates as time goes on (FIG. 7, immunoblots and FIG. 8 densitometry). […] The experiment examining p65 nuclear translocation is shown in FIG. 9 (immunoblots) and FIG. 10 (densitometry). In LPS stimulated cells, p65 translocated into the nucleus as early as 5 minutes post-stimulation and accumulated to maximum levels at 15-30 minutes post-stimulation. Treatment of LPS-stimulated cells with Compound 2 had no effect on the kinetics of p65 nuclear entry.
THP-1 cells were suspended in 20 volumes of buffer A containing 10 mM KCl, 10 mM HEPES (pH 7.9), 1 mM MgCl2, 1 mM dithiothreitol (DTT), 0.1% Nonidet p40 (NP-40), and 0.5 mM phenylmethylsulfonyl fluoride (PMSF) and homogenized and centrifuged at 10,000 rpm at 4 C for 5 min. Nuclear pellets were then suspended in buffer C containing 400 mM NaCl, 20 mM HEPES 9 pH 7.9), 15 mM MgCl2, 0.2 mM EDTA, 1 mM DTT, 25% glycerol, 1 mM PMSF, and 10 ug of leupeptin, 20 ug of pepstatin, and 10 ug/ml antipain, incubated for 30 min at 4 C, and centrifuged at 14,000 rpm for 20 min. The supernatants were dialyzed against buffer D containing 100 mM NaCl, 20 mM HEPES (pH 7.9), 20% glycerol, 1 mM PMSF, and 1 mM DTT. […]

The test system of another assay is IL-12 p70. Description: Inhibition of production of IL-12 p70 protein. The note with it: Homo sapiens; 1 μM Compound 1; 10 mM ASA; read-out: percent inhibition of production of IL-12 p70 protein. Here is the method: Cells were co-transfected with the vector pCMV (BD Biosciences Clontech) in which the constitutively active CMV promoter directs β-galactosidase expression for the monitoring of transfection efficiency. Luciferase and β-galactosidase activity were determined in cell extracts prepared according to the Luciferase assay system (Promega) and Luminescent n-gal Detection system (BD Biosciences Clontech). Luciferase activity was then normalized using the β-galactosidase value. […] ELISA was performed by the following method. Human IL-12 p70 (heterodimer) was assayed using ELI-PAIR kit from Cell Sciences (Norwood, Mass.), according to the manufacturer's instructions. Human IL-12 p40 was assayed using ELISA kit from Cell Sciences (Norwood, Mass.) according to the manufacturer's instructions.
The extracts obtained from this process were used in gel-shift assays using oligonucleotides containing the NFκB target sequence corresponding to the region −121 to −102 from the transcription initiation site of IL-12 p40 or a mutated NFκB binding site. […] This interaction was specific as it was competed away by an excess of unlabeled probe, but not by a mutated oligonucleotide in which two base-pairs were substituted. […] This is expected since a compound that potently blocks NFkB have a far broader cytokine inhibitory profile than Compound 1/Compound 2.

SMILES strings stand for the structures.

Regarding `Cc1cccc(C=NNc2cc(N3CCOCC3)nc(OCCc3ccccn3)n2)c1` [Compound 2, N-(3-methyl-benzylidene)-N′-[6-morpholin-4-yl-2-(2-pyridin-2-yl-ethoxy)-pyrimidin-4-yl]-hydrazine], the “binding activity of c-Rel” value in the assay on c-Rel is listed as “significantly decreased”. The “amount of p65 in nuclear” value with p65 (500 nM, 3 hr, relative to untreated cells) is reported as “significantly increased”. Also, in the assay with p65 (THP1, IFN-γ plus LPS or IFN-γ plus SAC), the “nuclear p65 protein (FIG. 4)” value is “increased”. The “kinetics of p65 nuclear entry” value in the assay on p65 (THP1, LPS, 100 nM) is given as “no effect”. Also, the “level of nuclear p65” value in the assay with p65 (THP1, LPS, 100 nM, 6 hours, relative to untreated cells) is given as “small increase”.
Take `C(=NNc1nc(OCCc2ccccn2)nc(N2CCOCC2)n1)c1c[nH]c2ccccc12` [Compound 1, N-(1H-indol-3-ylmethylene)-N′-[4-morpholin-4-yl-6-(2-pyridin-2-yl-ethoxy)-[1,3,5]triazin-2-yl]-hydrazine]: the inhibition at 1 µM in the assay with IL-12 p70 is 97%.

The values are drawn from patent US9910031B2, “Compositions and methods for modulating c-Rel-dependent cytokine production” (Synta Pharmaceuticals Corporation, priority 2003, dated 2018).
